Measured values from the kinase profiling compilation of Christmann-Franck et al. (2016).
Blank lines part the entries; values can stand above or below the compound they belong to.

Columns and labels:
Assay in all cases: Caliper, Mobility shift assay off-chip
[1] = target: EPHA7 (human) (UniProt Q15375)
[2] = target: GSK3A (human) (UniProt P49840)
[3] = target: HIPK3 (human) (UniProt Q9H422)
[4] = target: RET (human) (UniProt P07949)
[5] = target: MST1R (human) (UniProt Q04912)
[6] = target: CAMK2G (human) (UniProt Q13555)
[7] = target: NEK11 (human) (UniProt Q8NG66)
[8] = target: FER (human) (UniProt P16591)
[9] = target: CLK3 (human) (UniProt P49761)
[10] = target: RPS6KA6 KD1 KD2 (human) (UniProt Q9UK32)
[11] = target: GSG2 (human) (UniProt Q8TF76)
[12] = target: DAPK2 (human) (UniProt Q9UIK4)
[13] = target: NEK7 (human) (UniProt Q8TDX7)
[14] = test system: KIT (human), P10721 [D816H]
[15] = target: ROS1 (human) (UniProt P08922)
[16] = target: NTRK1 (human) (UniProt P04629)
[17] = target: SRPK2 (human) (UniProt P78362)
[18] = target: PAK2 (human) (UniProt Q13177)
[19] = target: MYLK3 (human) (UniProt Q32MK0)
[20] = target: PIM3 (human) (UniProt Q86V86)
[21] = target: STK10 (human) (UniProt O94804)
[22] = target: MELK (human) (UniProt Q14680)
[23] = test system: FGFR1 (human), P11362 [V561M]
[24] = target: MAP2K6 (human) (UniProt P52564)
[25] = target: PASK (human) (UniProt Q96RG2)
[26] = target: PAK6 (human) (UniProt Q9NQU5)
[27] = target: EPHA3 (human) (UniProt P29320)
[28] = test system: KIT (human), P10721 [V560G]
[29] = target: PAK3 (human) (UniProt O75914)
[30] = target: WNK3 (human) (UniProt Q9BYP7)
[31] = target: STK4 (human) (UniProt Q13043)
[32] = target: AXL (human) (UniProt P30530)
[33] = target: STK33 (human) (UniProt Q9BYT3)
[34] = target: CSNK1G1 (human) (UniProt Q9HCP0)
[35] = target: PRKCB2 (human) (UniProt P05771)
[36] = target: ERBB4 (human) (UniProt Q15303)
[37] = target: PDGFRA (human) (UniProt P16234)
[38] = target: CSF1R (human) (UniProt P07333)
[39] = test system: EGFR (human), P00533 [T790M/L858R]
[40] = target: GSK3B (human) (UniProt P49841)
[41] = target: NEK3 (human) (UniProt P51956)

Chain of ERBB4 (human) (Q15303 whole entry, looked up): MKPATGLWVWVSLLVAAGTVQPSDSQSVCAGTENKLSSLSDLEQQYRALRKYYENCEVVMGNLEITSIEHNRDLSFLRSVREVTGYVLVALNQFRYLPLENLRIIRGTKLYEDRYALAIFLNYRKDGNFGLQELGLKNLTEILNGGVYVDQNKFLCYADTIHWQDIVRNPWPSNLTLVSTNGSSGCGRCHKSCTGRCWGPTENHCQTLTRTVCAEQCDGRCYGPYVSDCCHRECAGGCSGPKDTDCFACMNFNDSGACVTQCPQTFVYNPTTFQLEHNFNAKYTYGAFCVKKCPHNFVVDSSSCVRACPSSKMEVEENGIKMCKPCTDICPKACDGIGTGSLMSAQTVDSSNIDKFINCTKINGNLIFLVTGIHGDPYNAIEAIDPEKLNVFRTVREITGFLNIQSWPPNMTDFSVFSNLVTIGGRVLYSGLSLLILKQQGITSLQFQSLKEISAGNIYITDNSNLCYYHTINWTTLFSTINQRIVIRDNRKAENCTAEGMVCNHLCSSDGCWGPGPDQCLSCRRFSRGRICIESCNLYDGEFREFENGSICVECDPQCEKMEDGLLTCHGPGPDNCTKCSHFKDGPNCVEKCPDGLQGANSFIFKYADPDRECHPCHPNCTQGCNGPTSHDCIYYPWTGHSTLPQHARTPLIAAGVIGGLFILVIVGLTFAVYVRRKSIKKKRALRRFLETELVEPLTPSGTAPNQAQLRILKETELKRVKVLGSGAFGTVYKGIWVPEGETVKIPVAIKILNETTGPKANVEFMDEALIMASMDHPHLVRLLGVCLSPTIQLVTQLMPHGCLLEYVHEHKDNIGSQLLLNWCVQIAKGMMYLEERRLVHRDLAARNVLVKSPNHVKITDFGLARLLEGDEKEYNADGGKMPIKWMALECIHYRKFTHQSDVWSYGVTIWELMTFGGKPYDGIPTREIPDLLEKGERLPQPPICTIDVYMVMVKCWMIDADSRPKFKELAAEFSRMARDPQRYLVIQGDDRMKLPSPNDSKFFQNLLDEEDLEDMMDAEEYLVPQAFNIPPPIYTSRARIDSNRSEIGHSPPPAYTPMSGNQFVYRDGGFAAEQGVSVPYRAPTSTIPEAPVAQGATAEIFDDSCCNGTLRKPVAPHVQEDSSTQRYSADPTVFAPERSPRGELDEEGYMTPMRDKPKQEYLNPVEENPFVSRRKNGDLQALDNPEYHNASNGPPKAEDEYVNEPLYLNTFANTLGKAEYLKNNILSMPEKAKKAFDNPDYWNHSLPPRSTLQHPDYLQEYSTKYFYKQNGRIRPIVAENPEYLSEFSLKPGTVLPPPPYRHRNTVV
Chain of GSK3A (human) (P49840 whole entry, looked up): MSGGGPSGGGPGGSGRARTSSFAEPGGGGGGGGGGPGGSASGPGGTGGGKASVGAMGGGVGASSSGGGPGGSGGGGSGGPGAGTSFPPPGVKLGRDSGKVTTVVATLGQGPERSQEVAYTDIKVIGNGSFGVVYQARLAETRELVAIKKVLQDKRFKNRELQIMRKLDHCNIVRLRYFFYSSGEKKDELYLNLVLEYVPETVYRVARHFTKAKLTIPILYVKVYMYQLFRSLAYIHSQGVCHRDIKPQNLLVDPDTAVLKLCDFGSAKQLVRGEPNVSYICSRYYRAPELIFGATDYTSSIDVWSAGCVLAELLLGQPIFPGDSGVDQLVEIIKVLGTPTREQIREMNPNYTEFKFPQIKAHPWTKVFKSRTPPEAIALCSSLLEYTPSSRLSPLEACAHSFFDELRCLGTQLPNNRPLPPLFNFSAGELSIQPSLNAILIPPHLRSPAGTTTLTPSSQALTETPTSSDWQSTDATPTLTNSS
Chain of PAK2 (human) (Q13177 whole entry, looked up): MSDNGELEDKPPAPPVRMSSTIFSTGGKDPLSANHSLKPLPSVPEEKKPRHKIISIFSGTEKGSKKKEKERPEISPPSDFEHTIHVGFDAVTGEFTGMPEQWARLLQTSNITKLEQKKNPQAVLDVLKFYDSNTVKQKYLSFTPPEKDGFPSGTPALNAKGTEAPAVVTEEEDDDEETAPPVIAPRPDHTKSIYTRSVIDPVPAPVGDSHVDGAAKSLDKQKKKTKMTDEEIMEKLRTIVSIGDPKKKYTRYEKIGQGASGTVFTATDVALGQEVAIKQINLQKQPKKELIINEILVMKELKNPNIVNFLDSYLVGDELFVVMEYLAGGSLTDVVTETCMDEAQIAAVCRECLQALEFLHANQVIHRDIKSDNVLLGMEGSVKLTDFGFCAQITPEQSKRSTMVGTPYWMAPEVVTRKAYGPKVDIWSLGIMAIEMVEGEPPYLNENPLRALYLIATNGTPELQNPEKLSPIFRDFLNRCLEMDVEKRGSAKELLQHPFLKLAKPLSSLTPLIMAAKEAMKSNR
Chain of NEK7 (human) (Q8TDX7 whole entry, looked up): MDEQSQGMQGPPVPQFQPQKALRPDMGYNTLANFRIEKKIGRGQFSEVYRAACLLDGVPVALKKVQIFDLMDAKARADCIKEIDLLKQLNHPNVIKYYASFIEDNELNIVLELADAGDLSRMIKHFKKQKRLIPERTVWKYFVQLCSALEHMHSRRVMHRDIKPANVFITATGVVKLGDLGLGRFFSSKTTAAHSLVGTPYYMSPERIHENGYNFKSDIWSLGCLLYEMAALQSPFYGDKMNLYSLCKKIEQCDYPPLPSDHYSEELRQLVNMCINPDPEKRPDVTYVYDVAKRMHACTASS
Chain of DAPK2 (human) (Q9UIK4 whole entry, looked up): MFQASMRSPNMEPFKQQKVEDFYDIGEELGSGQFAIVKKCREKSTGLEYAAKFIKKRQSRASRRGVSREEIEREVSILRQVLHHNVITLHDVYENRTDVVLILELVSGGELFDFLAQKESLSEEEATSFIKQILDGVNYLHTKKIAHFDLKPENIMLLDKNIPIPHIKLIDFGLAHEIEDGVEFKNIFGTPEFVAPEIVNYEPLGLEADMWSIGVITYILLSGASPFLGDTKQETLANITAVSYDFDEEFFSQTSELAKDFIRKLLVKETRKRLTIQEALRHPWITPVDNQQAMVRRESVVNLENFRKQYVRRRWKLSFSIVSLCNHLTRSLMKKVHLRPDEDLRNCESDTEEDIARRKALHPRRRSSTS
Chain of CSF1R (human) (P07333 whole entry, looked up): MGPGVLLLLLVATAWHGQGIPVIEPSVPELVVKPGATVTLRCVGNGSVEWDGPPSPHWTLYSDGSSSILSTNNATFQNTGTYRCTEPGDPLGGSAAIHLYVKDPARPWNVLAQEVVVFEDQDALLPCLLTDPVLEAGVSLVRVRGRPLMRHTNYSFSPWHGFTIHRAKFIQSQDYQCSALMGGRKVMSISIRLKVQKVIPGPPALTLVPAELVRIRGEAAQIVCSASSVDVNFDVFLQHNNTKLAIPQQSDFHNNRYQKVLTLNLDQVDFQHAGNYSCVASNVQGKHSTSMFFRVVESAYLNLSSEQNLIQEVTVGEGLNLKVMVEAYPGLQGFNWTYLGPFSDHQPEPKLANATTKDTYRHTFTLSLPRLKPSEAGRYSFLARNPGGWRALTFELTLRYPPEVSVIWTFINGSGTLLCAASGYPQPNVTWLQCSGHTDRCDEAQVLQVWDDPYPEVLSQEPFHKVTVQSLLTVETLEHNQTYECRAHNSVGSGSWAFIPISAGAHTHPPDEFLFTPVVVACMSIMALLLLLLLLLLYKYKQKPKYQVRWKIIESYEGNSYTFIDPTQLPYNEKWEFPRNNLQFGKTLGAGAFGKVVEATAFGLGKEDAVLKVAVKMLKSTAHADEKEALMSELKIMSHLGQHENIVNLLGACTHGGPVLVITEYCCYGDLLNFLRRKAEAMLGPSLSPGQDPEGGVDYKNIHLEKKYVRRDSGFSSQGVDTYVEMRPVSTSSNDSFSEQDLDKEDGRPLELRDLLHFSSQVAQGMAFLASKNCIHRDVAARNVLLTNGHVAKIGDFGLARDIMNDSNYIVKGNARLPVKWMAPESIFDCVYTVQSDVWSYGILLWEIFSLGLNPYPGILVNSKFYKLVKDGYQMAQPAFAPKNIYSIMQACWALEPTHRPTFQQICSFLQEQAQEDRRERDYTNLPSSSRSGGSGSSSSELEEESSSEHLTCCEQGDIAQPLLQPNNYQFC
Chain of STK10 (human) (O94804 whole entry, looked up): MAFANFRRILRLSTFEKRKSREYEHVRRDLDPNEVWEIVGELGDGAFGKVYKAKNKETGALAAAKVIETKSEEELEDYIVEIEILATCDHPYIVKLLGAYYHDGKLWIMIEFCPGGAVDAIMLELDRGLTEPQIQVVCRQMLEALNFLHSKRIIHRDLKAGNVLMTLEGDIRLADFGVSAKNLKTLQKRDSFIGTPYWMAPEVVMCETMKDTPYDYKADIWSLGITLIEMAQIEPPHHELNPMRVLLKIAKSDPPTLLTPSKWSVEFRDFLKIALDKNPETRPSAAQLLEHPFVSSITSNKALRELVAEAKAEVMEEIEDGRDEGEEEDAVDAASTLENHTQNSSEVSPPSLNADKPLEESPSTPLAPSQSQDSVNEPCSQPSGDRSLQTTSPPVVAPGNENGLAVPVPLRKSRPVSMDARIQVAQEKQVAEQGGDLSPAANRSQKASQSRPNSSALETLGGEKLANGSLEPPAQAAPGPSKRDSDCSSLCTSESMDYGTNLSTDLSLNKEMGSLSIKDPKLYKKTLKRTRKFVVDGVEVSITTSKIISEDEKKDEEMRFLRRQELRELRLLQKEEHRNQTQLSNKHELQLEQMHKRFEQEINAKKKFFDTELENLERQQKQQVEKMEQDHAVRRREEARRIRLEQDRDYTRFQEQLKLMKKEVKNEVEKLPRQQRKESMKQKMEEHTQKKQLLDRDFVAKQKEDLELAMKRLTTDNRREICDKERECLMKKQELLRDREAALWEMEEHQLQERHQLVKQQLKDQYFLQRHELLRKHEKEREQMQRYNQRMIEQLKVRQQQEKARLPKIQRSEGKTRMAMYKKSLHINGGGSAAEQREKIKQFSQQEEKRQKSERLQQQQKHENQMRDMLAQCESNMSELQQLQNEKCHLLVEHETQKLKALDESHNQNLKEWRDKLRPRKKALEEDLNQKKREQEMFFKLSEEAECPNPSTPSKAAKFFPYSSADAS

residual activity ([1]; compound 1.0 µM): 102%
residual activity ([2]; compound 1.0 µM): 107%
residual activity ([3]; compound 1.0 µM): 104%
residual activity ([4]; compound 1.0 µM): 1%
residual activity ([5]; compound 1.0 µM): 98%
residual activity ([6]; compound 1.0 µM): 13%
residual activity ([7]; compound 1.0 µM): 116%
residual activity ([8]; compound 1.0 µM): 6%
residual activity ([9]; compound 1.0 µM): 108%
residual activity ([10]; compound 1.0 µM): 12%
residual activity ([11]; compound 1.0 µM): 158%
residual activity ([12]; compound 1.0 µM): 36%
residual activity ([13]; compound 1.0 µM): 111%
residual activity ([14]; compound 1.0 µM): 9%
residual activity ([15]; compound 1.0 µM): 98%
residual activity ([16]; compound 1.0 µM): 10%
residual activity ([17]; compound 1.0 µM): 107%
residual activity ([18]; compound 1.0 µM): 99%
residual activity ([19]; compound 1.0 µM): 53%
residual activity ([20]; compound 1.0 µM): 96%
residual activity ([21]; compound 1.0 µM): 25%
residual activity ([22]; compound 1.0 µM): 67%
residual activity ([23]; compound 1.0 µM): 73%
residual activity ([24]; compound 1.0 µM): 106%
residual activity ([25]; compound 1.0 µM): 109%
residual activity ([26]; compound 1.0 µM): 103%
residual activity ([27]; compound 1.0 µM): 111%
residual activity ([28]; compound 1.0 µM): 9%
residual activity ([29]; compound 1.0 µM): 78%
residual activity ([30]; compound 1.0 µM): 73%
residual activity ([31]; compound 1.0 µM): 30%
residual activity ([32]; compound 1.0 µM): 18%
residual activity ([33]; compound 1.0 µM): 41%
residual activity ([34]; compound 1.0 µM): 97%
residual activity ([35]; compound 1.0 µM): 105%
residual activity ([36]; compound 1.0 µM): 102%
residual activity ([37]; compound 1.0 µM): 74%
residual activity ([38]; compound 1.0 µM): 10%
residual activity ([39]; compound 1.0 µM): 12%
residual activity ([40]; compound 1.0 µM): 82%
residual activity ([41]; compound 1.0 µM): 104%
Compound: C[C@@H](Nc1nc2c(C#CC3CC3)c[nH]c(=O)c2c2cc(-c3cn[nH]c3)ccc12)C(C)(C)C

residual activity ([2]; compound 1.0 µM): 107%
residual activity ([4]; compound 1.0 µM): 37%
residual activity ([5]; compound 1.0 µM): 107%
residual activity ([8]; compound 1.0 µM): 104%
residual activity ([12]; compound 1.0 µM): 90%
residual activity ([13]; compound 1.0 µM): 105%
residual activity ([15]; compound 1.0 µM): 95%
residual activity ([16]; compound 1.0 µM): 46%
residual activity ([17]; compound 1.0 µM): 108%
residual activity ([18]; compound 1.0 µM): 106%
residual activity ([21]; compound 1.0 µM): 81%
residual activity ([24]; compound 1.0 µM): 106%
residual activity ([26]; compound 1.0 µM): 31%
residual activity ([27]; compound 1.0 µM): 99%
residual activity ([30]; compound 1.0 µM): 111%
residual activity ([31]; compound 1.0 µM): 32%
residual activity ([32]; compound 1.0 µM): 96%
residual activity ([36]; compound 1.0 µM): 103%
residual activity ([37]; compound 1.0 µM): 110%
residual activity ([38]; compound 1.0 µM): 55%
residual activity ([40]; compound 1.0 µM): 105%
Compound: Cc1n[nH]c2c1c(=O)n(CCCN)c1ccc(Cl)cc21

Compound: O=C(N[C@@H](COc1ccc2[nH]c(=O)[nH]c2c1)c1ccccc1)c1cccn(Cc2ccc(F)c(F)c2)c1=O
residual activity ([1]; compound 10.0 µM): 103%
residual activity ([2]; compound 10.0 µM): 102%
residual activity ([3]; compound 10.0 µM): 110%
residual activity ([4]; compound 10.0 µM): 100%
residual activity ([5]; compound 10.0 µM): 82%
residual activity ([6]; compound 10.0 µM): 97%
residual activity ([7]; compound 10.0 µM): 126%
residual activity ([8]; compound 10.0 µM): 98%
residual activity ([9]; compound 10.0 µM): 115%
residual activity ([10]; compound 10.0 µM): 113%
residual activity ([11]; compound 10.0 µM): 74%
residual activity ([12]; compound 10.0 µM): 94%
residual activity ([13]; compound 10.0 µM): 102%
residual activity ([14]; compound 10.0 µM): 97%
residual activity ([15]; compound 10.0 µM): 111%
residual activity ([16]; compound 10.0 µM): 108%
residual activity ([17]; compound 10.0 µM): 102%
residual activity ([18]; compound 10.0 µM): 94%
residual activity ([19]; compound 10.0 µM): 110%
residual activity ([20]; compound 10.0 µM): 97%
residual activity ([21]; compound 10.0 µM): 113%
residual activity ([22]; compound 10.0 µM): 104%
residual activity ([23]; compound 10.0 µM): 103%
residual activity ([24]; compound 10.0 µM): 115%
residual activity ([25]; compound 10.0 µM): 111%
residual activity ([26]; compound 10.0 µM): 101%
residual activity ([27]; compound 10.0 µM): 118%
residual activity ([28]; compound 10.0 µM): 99%
residual activity ([29]; compound 10.0 µM): 88%
residual activity ([30]; compound 10.0 µM): 99%
residual activity ([31]; compound 10.0 µM): 103%
residual activity ([32]; compound 10.0 µM): 107%
residual activity ([33]; compound 10.0 µM): 104%
residual activity ([34]; compound 10.0 µM): 102%
residual activity ([35]; compound 10.0 µM): 96%
residual activity ([36]; compound 10.0 µM): 120%
residual activity ([37]; compound 10.0 µM): 108%
residual activity ([38]; compound 10.0 µM): 107%
residual activity ([39]; compound 10.0 µM): 99%
residual activity ([40]; compound 10.0 µM): 92%
residual activity ([41]; compound 10.0 µM): 104%
